Reference: PMC7397056, “Design, Facile Synthesis and Characterization of Dichloro Substituted Chalcones and Dihydropyrazole Derivatives for Their Antifungal, Antitubercular and Antiproliferative Activities” (Molecules, 2020)
Converted amounts (≈) assume the structure as drawn. Where two headings read alike, the source gives them in different places.

What was measured:
[1] = test system: Aspergillus niger (ATCC-6275); test: Antifungal activity, serial tube dilution method (MIC); details: for MIC: Aspergillus niger; for Antifungal activity MIC, A. niger: serial tube dilution, 37 °C, 18 h, average of three
[2] = test system: Mycobacterium tuberculosis H37Rv; test: Antitubercular activity, broth dilution assay (MIC); type: cell-based; details: for MIC: Middlebrook 7H9 broth, 37 °C, 21 days; for fold more antitubercular activity than the chalcones 14 and 16: 29 vs 14, 31 vs 16
[3] = test system: prostate cancer cell lines (DU-145); test: Antiproliferative activity, MTT assay; type: cell-based; details: Homo sapiens, 48 h, mean ± SD (n = 3)
Description: (§1) The antiproliferative activity of the compounds was determined their IC50 values. Methotrexate (Mtx; positive control) was used as a reference standard for comparing the antiproliferative activity of the target compounds. The MTT (3-(4,5-dimethylthiazol-2-yl)-2,5-diphenyl tetrazolium bromide) assay was based on the reduction of the soluble MTT (0.5 mg mL^−1, 100 µL) into a blue-purple formazan product, mainly by the activity of mitochondrial reductase enzymes inside the living cells. The prostate cancer cell lines, DU-145 cells, were cultured in Dulbecco’s Modified Eagle Medium (DMEM) media at 37 °C and humidified at 5% CO2. Stock solutions of the test compounds (17–46) were prepared in 0.1% DMSO followed by dilution with sterile water to obtain the desired final concentrations. Briefly, the cells were placed on 96-well plates at 100 µL total volume with the density of 1 × 10^4 cells per well and were allowed to adhere for 24 h. Then the medium was replaced with fresh media containing different dilutions of the test compounds and incubated for additional 48 h at 37 °C in DMEM with 10% fetal bovine serum (FBS) medium. Subsequently, the medium was replaced with 90 μL of fresh DMEM without FBS. The above wells were treated with 10 μL of MTT reagent (5 mg/mL of stock solution in DMEM without FBS) and incubated at 37 °C for 3–4 h. The formed blue formazan crystals were dissolved in 200 μL of DMSO. The optical density was determined at 570 nm using a micro plate reader. The assay was performed in triplicate for three independent experiments. The same experimentation was also done to confirm that the DMSO (negative control) had no effect in the study. The results had good reproducibility between replicate wells with standard errors below 10%. The antiproliferative activity results measured as IC50 values in µg/mL were converted and expressed in µM. Additionally, the cytotoxic activity of the compounds was also measured employing the same protocol discussed above to assess their toxicity on normal human cell lines (L02).

[4] = Cytotoxic activity on normal cells, MTT assay; type: cell-based
Description: as §1

[5] = test system: Candida tropicalis (ATCC-1369); test: Antifungal activity, serial tube dilution method (MIC); details: for MIC: Candida tropicalis, ATCC1369, 18 h, read-out: Antifungal activity MIC, C. tropicalis, serial tube dilution, 37 °C, 18 h, average of three
[6] = ATCC6275, 18 h, read-out: Antifungal activity MIC, A. niger, serial tube dilution, 37 °C, 18 h, average of three
[7] = ATCC6275, read-out: Antifungal MIC, Aspergillus niger
[8] = ratio of MICs vs pyrazinamide (MIC 25.34 µM)
[9] = L02 cells (normal human cell line)
[10] = Mycobacterium tuberculosis, H37RV, 504 h

Row | SMILES | MIC [1, 6] | IC50 [3] | IC50 at 48 h [4, 9] | MIC [5] | melting point | MIC [2, 10] | further results
1 | Fc1ccccc1C1CC(c2ccc(Cl)c(Cl)c2)=NN1c1ccccc1 (stereo not drawn) [Compound 19, 3-(3,4-dichlorophenyl)-1-phenyl-5-(2-fluorophenyl)-4,5-dihydro-1H-pyrazole] | 20.8 µM | 327 ± 2 µM | > 75 µg/mL | 41.5 µM (≈ 16 µg/mL) | 149 °C | – | MIC [1, 7]: 20.8 µg/mL; MIC [2]: 32.44 µM (≈ 12.5 µg/mL); fold less activity than pyrazinamide [2, 8]: 1.2 fold
2 | O=C(/C=C/c1ccccc1F)c1ccc(Cl)c(Cl)c1 [Compound 4] | 27.1 µM | 393 ± 2 µM | > 50 µg/mL | 54.2 µM (≈ 16 µg/mL) | – | 84.7 µM (≈ 25 µg/mL) | –
3 | Clc1ccc(C2CC(c3ccc(Cl)c(Cl)c3)=NN2c2ccccc2)cc1 (stereo not drawn) [Compound 20, 3-(3,4-dichlorophenyl)-1-phenyl-5-(4-chlorophenyl)-4,5-dihydro-1H-pyrazole] | 28.8 µM | 149 ± 2 µM | > 75 µg/mL | 39.8 µM (≈ 16 µg/mL) | 261 °C | – | Antifungal activity MIC, A. niger [1]: 19.91 µM; MIC [2]: 31.11 µM (≈ 12.5 µg/mL); fold less activity than pyrazinamide [2, 8]: 1.2 fold
4 | O=C(/C=C/c1ccc(Cl)cc1Cl)c1ccc(Cl)c(Cl)c1 [Compound 8, (E)-1-(3,4-dichlorophenyl)-3-(2,4-dichlorophenyl)prop-2-en-1-one] | 23.1 µM | 254 ± 2 µM | > 50 µg/mL | 46.2 µM (≈ 16 µg/mL) | 299 °C | 18.1 µM (≈ 6.25 µg/mL) | –
5 | Fc1ccc(C2CC(c3ccc(Cl)c(Cl)c3)=NN2c2ccccc2)cc1 (stereo not drawn) [Compound 18, 3-(3,4-dichlorophenyl)-1-phenyl-5-(4-fluorophenyl)-4,5-dihydro-1H-pyrazole] | 28.8 µM | 119 ± 2 µM | > 75 µg/mL | 41.5 µM (≈ 16 µg/mL) | 195 °C | – | MIC [1, 7]: 20.8 µg/mL; Antifungal activity MIC, A. niger [1]: 20.76 µM; MIC [2]: 32.44 µM (≈ 12.5 µg/mL); fold less activity than pyrazinamide [2, 8]: 1.2 fold
6 | Clc1ccc(C2=NN(c3ccccc3)C(c3ccc4c(c3)OCO4)C2)cc1Cl (stereo not drawn) [Compound 25, 3-(3,4-dichlorophenyl)-1-phenyl-5-(benzo[d][1,3]dioxol-5-yl)-4,5-dihydro-1H-pyrazole] | 19.4 µM | 131 ± 2 µM | > 75 µg/mL | 19.4 µM (≈ 8 µg/mL) | 212 °C | 60.8 µM (≈ 25 µg/mL) | –
7 | Clc1ccc(C2=NN(c3ccccc3)C(c3cccnc3)C2)cc1Cl (stereo not drawn) [Compound 27, 3-(3,4-dichlorophenyl)-1-phenyl-5-(pyridin-3-yl)-4,5-dihydro-1H-pyrazole] | 21.7 µM | 211 ± 2 µM | > 75 µg/mL | 21.7 µM (≈ 8 µg/mL) | 184 °C | 67.9 µM (≈ 25 µg/mL) | –
8 | Clc1ccc(C2=NN(c3ccccc3)C(c3ccccn3)C2)cc1Cl (stereo not drawn) [Compound 26, 3-(3,4-dichlorophenyl)-1-phenyl-5-(pyridin-2-yl)-4,5-dihydro-1H-pyrazole] | 21.7 µM | 271 ± 2 µM | > 75 µg/mL | 21.7 µM (≈ 8 µg/mL) | 191 °C | 67.9 µM (≈ 25 µg/mL) | –
9 | OC(Cn1cncn1)(Cn1cncn1)c1ccc(F)cc1F [Fluconazole, reference compound] | 26.1 µM | – | – | 19.6 µM (≈ 6 µg/mL) | – | – | –
10 | O=C(/C=C/c1cccs1)c1ccc(Cl)c(Cl)c1 [Compound 16, (E)-1-(3,4-dichlorophenyl)-3-(thiophen-2-yl)prop-2-en-1-one] | 14.1 µM | 17 ± 1 µM | – | 14.1 µM (≈ 4 µg/mL) | 194 °C | 22.1 µM (≈ 6.25 µg/mL) | fold better activity in comparison to fluconazole, Aspergillus niger [1]: 1.84 fold; IC50 at 48 h ([4]; normal human cell line L02): > 50 µg/mL; fold better activity in comparison to fluconazole, Candida tropicalis [5]: 1.35 fold
11 | O=C(/C=C/c1ccccc1Cl)c1ccc(Cl)c(Cl)c1 [Compound 6] | 25.7 µM | 141 ± 2 µM | > 50 µg/mL | 51.3 µM (≈ 16 µg/mL) | – | 20.1 µM (≈ 6.25 µg/mL) | –
12 | Clc1ccc(C2=NN(c3ccccc3)C(c3ccco3)C2)cc1Cl (stereo not drawn) [Compound 29, 3-(3,4-dichlorophenyl)-1-phenyl-5-(furan-2-yl)-4,5-dihydro-1H-pyrazole] | 11.2 µM | 162 ± 2 µM | > 75 µg/mL | 11.2 µM (≈ 4 µg/mL) | 200 °C | 17.5 µM (≈ 6.25 µg/mL) | fold more antitubercular activity than the chalcones 14 and 16 [2]: 2.6 fold
13 | O=C(/C=C/c1ccc[nH]1)c1ccc(Cl)c(Cl)c1 [Compound 15, (E)-1-(3,4-dichlorophenyl)-3-(1H-pyrrol-2-yl)prop-2-en-1-one] | 60.4 µM | 94 ± 2 µM | > 50 µg/mL | 60.4 µM (≈ 16.1 µg/mL) | 238 °C | 47.2 µM (≈ 12.6 µg/mL) | –
14 | Cc1ccc(/C=C/C(=O)c2ccc(Cl)c(Cl)c2)cc1 [Compound 2] | 110 µM | 432 ± 2 µM | > 50 µg/mL | 110 µM (≈ 32 µg/mL) | – | 343 µM (≈ 100 µg/mL) | –
15 | O=C(/C=C/c1ccco1)c1ccc(Cl)c(Cl)c1 [Compound 14, (E)-1-(3,4-dichlorophenyl)-3-(furan-2-yl)prop-2-en-1-one] | 235 µM | 206 ± 2 µM | > 50 µg/mL | 117 µM (≈ 31.4 µg/mL) | 172 °C | 47 µM (≈ 12.6 µg/mL) | –
16 | O=C(/C=C/c1ccc2c(c1)OCO2)c1ccc(Cl)c(Cl)c1 [Compound 10] | 23 µM | 138 ± 2 µM | > 50 µg/mL | 180 µM (≈ 57.8 µg/mL) | – | 72.2 µM (≈ 23.2 µg/mL) | Antifungal activity MIC, A. niger [1]: 23.11 µM; Antifungal activity MIC, C. tropicalis ([5]; serial tube dilution, 37 °C, 18 h, average of three): 180.62 µM
17 | O=C(/C=C/c1cccnc1)c1ccc(Cl)c(Cl)c1 [Compound 12, (E)-1-(3,4-dichlorophenyl)-3-(pyridin-3-yl)prop-2-en-1-one] | 28.9 µM | 256 ± 2 µM | > 50 µg/mL | 14.4 µM (≈ 4.01 µg/mL) | 191 °C | 22.6 µM (≈ 6.27 µg/mL) | –
18 | Clc1ccc(C2CC(c3ccc(Cl)c(Cl)c3)=NN2c2ccccc2)c(Cl)c1 (stereo not drawn) [Compound 23, 3-(3,4-dichlorophenyl)-1-phenyl-5-(2,4-dichlorophenyl)-4,5-dihydro-1H-pyrazole] | 18.3 µM | 206 ± 2 µM | > 75 µg/mL | 36.7 µM (≈ 16 µg/mL) | 302 °C | 7.15 µM (≈ 3.12 µg/mL) | fold improvement in antitubercular activity compared to compound 20 ([2]; comparator compound 20): 4 fold; fold improvement in antitubercular activity compared to compound 21 ([2]; comparator compound 21): 2 fold
19 | Clc1ccc(C2=NN(c3ccccc3)C(c3ccccc3Cl)C2)cc1Cl (stereo not drawn) [Compound 21, 3-(3,4-dichlorophenyl)-1-phenyl-5-(2-chlorophenyl)-4,5-dihydro-1H-pyrazole] | 19.9 µM | 134 ± 2 µM | > 75 µg/mL | 39.8 µM (≈ 16 µg/mL) | 133 °C | 15.6 to 32.4 µM (≈ 6.25 to 13 µg/mL) | MIC [1, 7]: 19.9 µg/mL; MIC [2]: 15.55 µM (≈ 6.25 µg/mL); fold better activity than the standard pyrazinamide [2, 8]: 1.6 fold
20 | Clc1ccc(C2=NN(c3ccccc3)C(c3cccs3)C2)cc1Cl (stereo not drawn) [Compound 31, 3-(3,4-dichlorophenyl)-1-phenyl-5-(thiophen-2-yl)-4,5-dihydro-1H-pyrazole] | 5.35 µM | 32 ± 1 µM | – | 5.35 µM (≈ 2 µg/mL) | 212 °C | 8.35 µM (≈ 3.12 µg/mL) | fold better activity in comparison to fluconazole, Aspergillus niger [1]: 4.9 fold; fold improvement in MIC of dihydropyrazole over chalcone 16, Aspergillus niger ([1]; 31 (5.35 µM) vs 16 (14.12 µM)): 2.6 fold; fold more antitubercular activity than the chalcones 14 and 16 [2]: 2.6 fold; IC50 at 48 h ([4]; normal human cell line L02): > 75 µg/mL; fold better activity in comparison to fluconazole, Candida tropicalis [5]: 3.7 fold; fold improvement in MIC of dihydropyrazole over chalcone 16, Candida tropicalis ([5]; 31 (5.35 µM) vs 16 (14.12 µM)): 2.6 fold
21 | O=C(/C=C/c1ccncc1)c1ccc(Cl)c(Cl)c1 [Compound 13] | 57.8 µM | 209 ± 2 µM | > 50 µg/mL | 113 µM (≈ 31.4 µg/mL) | – | 45.1 µM (≈ 12.5 µg/mL) | –
22 | NC(=O)c1cnccn1 [Pyrazinamide, reference compound] | – | – | – | – | – | 25.3 µM (≈ 3.12 µg/mL) | –
23 | O=C(/C=C/c1ccc(Cl)cc1)c1ccc(Cl)c(Cl)c1 [Compound 5] | 25.7 µM | 147 ± 2 µM | > 50 µg/mL | 51.3 µM (≈ 16 µg/mL) | – | 80.2 µM (≈ 25 µg/mL) | –
24 | O=C(/C=C/c1ccc(F)cc1)c1ccc(Cl)c(Cl)c1 [Compound 3] | 54.2 µM | 176 ± 2 µM | > 50 µg/mL | 54.2 µM (≈ 16 µg/mL) | – | 84.7 µM (≈ 25 µg/mL) | –
